Experimental data from US20220395553A1, “CXCR4 ANTAGONIST PEPTIDES” (COHBAR, INC., priority 2019, published 2022).
Square brackets hold non-standard residues; d marks the D form. Peptide text beside a SMILES is read from it.

How the values were obtained:
[1] = system: CXCR4/CXCL12 induced p-MEK; assay: CXCR4/CXCL12 induced p-MEK in Jurkat cells (ELISA); assay type: cell-based, human; details: 5 nM CXCL12, 5 min
Procedure, shortened: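 Jurkat cells in RPMI+GlutaMax containing 10% FBS and 1% penicillin/streptomycin, fresh or conditioned, were resuspended at 2×10^6 cells/ml and […] aliquots placed in tubes. After a 5 min stimulation they were pelleted, rinsed with HBSS and lysed with PMSF and protease/phosphatase inhibitors. Phospho-MEK1 (Ser217/221) was quantified by sandwich ELISA with absorbance read at 450 nm.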

Jurkat cells = assay: CXCL12 mediated cell migration, Jurkat cells; assay type: cell-based, human; details: 1.1 μM test article, 100 ng/ml CXCL12, 1 hour
Description: The assay was performed following a protocol similar to that described by Peng, et al., Mol Cancer Ther., 14480-90 (2015), incorporated herein by reference. Peptides were initially prepared as 1 mM stock in H2O and tested at a final concentration of 1.1 μM. […] Jurkat cells were resuspended in serum free media (RPMI+GlutaMax; Gibco/Thermo Fisher Scientific; Gaithersburg, Md.) containing 0.5% bovine serum albumin at density of 5×10^6 cells/ml. […] Cells (250,000 cells in 50 μl) supplemented with the appropriate treatments were seeded on to the upper chamber of a 96-well 5 μm HTS Transwell filter insert (Corning/Costar; Tewksbury, Mass.). […] Filter inserts were immediately placed on top of 96-well receiver trays and placed at 37° C. in a humidified atmosphere of 5% CO2/95% air for 1 hour. Following the 1 hour incubation period the filter inserts were carefully removed and the migration of cells across the filter into the bottom chamber (receiver wells) was determined by measuring ATP levels using Cell TiterGlo 2.0, according to manufacturer's instructions (Promega; Madison, Wis.); luminescence was measured using a Cytation 3 plate reader (BioTek; Winooski, Vt.).

human CXCR4 [2] = biological target: T1, human CXCR4 (Homo sapiens, UniProt P61073); assay: CXCR4/CXCL12 binding, HTRF format, single concentration (Example 23); design: host or cells: HEK293 (Tag-lite CXCR4 cells, frozen aliquots, transient expression); details: 15 nM CXCR4R fluorescent probe, 3 hours, HEK293 Tag-lite CXCR4 cells
T1 sequence (P61073 whole entry): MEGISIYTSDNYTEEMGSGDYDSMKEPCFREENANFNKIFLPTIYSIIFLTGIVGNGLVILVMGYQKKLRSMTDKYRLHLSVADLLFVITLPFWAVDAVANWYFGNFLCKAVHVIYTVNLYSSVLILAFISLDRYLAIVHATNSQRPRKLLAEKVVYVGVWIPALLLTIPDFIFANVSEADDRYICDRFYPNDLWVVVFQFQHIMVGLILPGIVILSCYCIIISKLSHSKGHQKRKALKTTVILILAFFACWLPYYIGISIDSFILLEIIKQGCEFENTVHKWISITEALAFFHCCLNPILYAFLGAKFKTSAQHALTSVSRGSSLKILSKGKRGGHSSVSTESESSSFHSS
Procedure, shortened: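 Tag-lite CXCR4 cells were exposed to peptide at 400 nM final with 15 nM (EC80) fluorescent CXCR4 probe for 3 h at room temperature. HTRF was read, and the 665/620 nm ratio ×10,000 measured probe bound to terbium-labelled receptor.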

human CXCR4 [3] = biological target: T1, human CXCR4; assay: IC50 for CXCR4/CXCL12 ligand binding, HTRF format (Example 24); design: host or cells: HEK293 (Tag-lite CXCR4 cells, frozen aliquots, transient expression)
Description: Peptides were initially prepared as 1 mM stock in H2O. […] Following the manufacture's protocol, a frozen aliquot of Tag-lite CXCR4 cells was thawed and immediately seeded onto 384-well plates in TLB. […] The plates were covered in aluminum foil and left at room temperature for 3 hours. Following the 3 hour incubation period, the plates were removed from the incubator and fluorescence measured using a Cytation 1 plate reader using a HTRF filter cube ([…]; BioTek; Winooski, Vt.).

human CXCR4 [4] = biological target: T1, human CXCR4; assay: IC50 for inhibition of CXCR4 activation, β-Arrestin recruitment (Example 22); assay type: cell-based; design: host or cells: C2C12 (mouse myoblast) CXCR4 β-Arrestin PathHunter cell line
Procedure, shortened: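 C2C12 cells co-expressing ProLink-tagged human CXCR4 and Enzyme Acceptor-tagged β-arrestin (PathHunter). Peptides tested in 10-point, 3-fold dilutions from 1 μM (1 μM–0.05 nM). Recruitment read by chemiluminescent enzyme-fragment complementation after 90 min incubation.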

Compound	Percent Inhibition of CXCR4/CXCL12 Induced p-MEK (100 nM Test Article) [1]	Percent Inhibition of CXCR4/CXCL12 Induced p-MEK (1 μM Test Article) [1]	Percent Inhibition of CXCL12 Mediated Migration (1.1 μM Test Article) (Jurkat cells)	Percent Inhibition of CXCR4/CXCL12 Binding (400 nM peptide) (human CXCR4 [2])	IC50 (human CXCR4 [3])	IC50 (human CXCR4 [4])
CC(C)C[C@H](NC(=O)[C@H](CO)NC(=O)[C@H](CO)NC(=O)[C@H](CCCNC(=N)N)NC(=O)[C@@H](NC(=O)[C@H](CO)NC(=O)[C@H](Cc1c[nH]cn1)NC(=O)[C@H](Cc1c[nH]cn1)NC(=O)[C@H](Cc1ccc(O)cc1)NC(=O)[C@H](CCCNC(=N)N)NC(=O)[C@H](CCC(=O)O)NC(=O)[C@@H](N)CC(C)C)C(C)C)C(=O)N[C@@H](CCCNC(=N)N)C(=O)N1CCC[C@H]1C(=O)N[C@@H](Cc1ccc(O)cc1)C(=O)N[C@H](C(=O)N[C@@H](CCCCN)C(N)=O)[C@@H](C)O [compound 56] (H-LERYHHSVRSSLRPYTK-NH2; N-terminus assumed)	69%	98%	83%	79%	5 nM	11 nM
CC(C)C[C@H](NC(=O)[C@H](CO)NC(=O)[C@H](CO)NC(=O)[C@H](CCCNC(=N)N)NC(=O)[C@@H](C)NC(=O)[C@H](CO)NC(=O)[C@H](Cc1c[nH]cn1)NC(=O)[C@H](Cc1c[nH]cn1)NC(=O)[C@H](Cc1ccc(O)cc1)NC(=O)[C@H](CCCNC(=N)N)NC(=O)[C@H](CCC(=O)O)NC(=O)[C@@H](N)CC(C)C)C(=O)N[C@@H](CCCNC(=N)N)C(=O)N1CCC[C@H]1C(=O)N[C@@H](Cc1ccc(O)cc1)C(=O)N[C@H](C(=O)N[C@@H](CCCCN)C(N)=O)[C@@H](C)O [compound 57] (H-LERYHHS[dA]RSSLRPYTK-NH2; N-terminus assumed)	10%	72%	30%	77%	7 nM	33 nM
CC(C)C[C@H](NC(=O)[C@H](CO)NC(=O)[C@H](CO)NC(=O)[C@H](CCCNC(=N)N)NC(=O)[C@@H](NC(=O)[C@H](CO)NC(=O)[C@H](Cc1c[nH]cn1)NC(=O)[C@H](Cc1c[nH]cn1)NC(=O)[C@H](Cc1ccc(O)cc1)NC(=O)[C@H](CCCNC(=N)N)NC(=O)[C@H](CCC(=O)O)NC(=O)[C@@H](N)CC(C)C)C(C)C)C(=O)N[C@@H](CCCNC(=N)N)C(=O)N1CCC[C@H]1C(=O)N[C@@H](Cc1ccccc1)C(=O)N[C@H](C(=O)N[C@@H](CCCCN)C(=O)O)[C@@H](C)O [compound 60] (H-LERYHHSVRSSLRPFTK-OH; N-terminus and C-terminus assumed)	34%	82%	33%	60%	17 nM	4 nM
CC(C)C[C@H](NC(=O)[C@@H](NC(=O)[C@H](CO)NC(=O)[C@H](CCCNC(=N)N)NC(=O)[C@@H](NC(=O)[C@H](CO)NC(=O)[C@H](Cc1c[nH]cn1)NC(=O)[C@H](Cc1c[nH]cn1)NC(=O)[C@H](Cc1ccc(O)cc1)NC(=O)[C@H](CCCNC(=N)N)NC(=O)[C@H](CCC(=O)O)NC(=O)[C@@H](N)CC(C)C)C(C)C)[C@@H](C)O)C(=O)N[C@@H](CCCNC(=N)N)C(=O)N1CCC[C@H]1C(=O)N[C@@H](Cc1ccc(O)cc1)C(=O)N[C@H](C(=O)N[C@@H](CCCCN)C(=O)O)[C@@H](C)O [compound 74] (H-LERYHHSVRSTLRPYTK-OH; N-terminus and C-terminus assumed)	48%	93%	61%	88%	6 nM	5 nM
